This note sets out measurements from patent publication US20150175556A1, “DIHYDROPYRIMIDIN-2(1H)-ONES AND DIHYDROPYRIMIDIN-2(1H)-THIONES AS INHIBITORS OF SODIUM IODIDE SYMPORTER” (COMMISSARIAT A L'ENERGIE ATOMIQUE ET AUX ENERGIES …, priority 2012, published 2015).

In data set [1] the target is T1, sodium iodide symporter (NIS), iodide uptake in FRTL5 cells (Rattus norvegicus, UniProt Q63008).
T1 construct: endogenous in cells; host or cells: FRTL5 (rat thyroid-derived cells)
T1 sequence (Q63008 1-618): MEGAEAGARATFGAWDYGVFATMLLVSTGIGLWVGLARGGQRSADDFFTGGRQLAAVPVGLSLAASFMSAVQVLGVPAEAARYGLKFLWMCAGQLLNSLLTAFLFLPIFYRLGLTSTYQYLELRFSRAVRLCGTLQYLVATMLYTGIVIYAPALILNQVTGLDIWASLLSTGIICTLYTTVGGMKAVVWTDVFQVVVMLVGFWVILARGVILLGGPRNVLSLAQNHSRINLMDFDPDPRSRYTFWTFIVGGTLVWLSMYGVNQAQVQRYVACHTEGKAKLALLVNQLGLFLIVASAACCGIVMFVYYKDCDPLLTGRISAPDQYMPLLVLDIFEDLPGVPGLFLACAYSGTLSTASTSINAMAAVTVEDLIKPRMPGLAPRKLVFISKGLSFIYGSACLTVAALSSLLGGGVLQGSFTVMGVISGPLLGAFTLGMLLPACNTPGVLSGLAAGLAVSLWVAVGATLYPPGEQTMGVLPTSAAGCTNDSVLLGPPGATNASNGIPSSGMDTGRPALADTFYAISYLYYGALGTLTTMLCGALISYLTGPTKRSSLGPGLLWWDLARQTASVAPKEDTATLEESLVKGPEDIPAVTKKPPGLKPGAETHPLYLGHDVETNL
As to the kind of experiment: Inhibition of iodide uptake in FRTL5 cells, non radioactive arsenic/cerium assay. The data set is classed as cell-based. As for the experimental part: Some of the synthesized compounds were evaluated for their ability to inhibit iodide entrapment in FRTL5 cells. The IC50 values were measured in at least […] independent experiments.
The biological activity of each compound was determined in FRTL5 cells, using a non radioactive arsenic/cerium assay as described in F. Waltz et al., Anal. Biochem., 2012, 396, 91-95. Compound potency was expressed as IC50, the concentration of compound necessary to achieve 50% inhibition of iodide uptake. Briefly, to FRTL5 cells at 70-90% confluence was added compound (200 μM, 10 μM, 0.5 μM, 25 nM, 1.2 nM, 60 pM, […], and 0.15 pM final), followed by NaI (10 μM final). After 1 hour incubation at 20±1° C., supernatant was removed and the cells were immediately assayed for iodide content using the modified As/Ce Sandell-Kolthoff reaction. NaClO4 was tested in each microplate as assay controls. The IC50 values of all compounds were measured least thrice independently.
Stock solutions of tested compounds were prepared in DMSO (20 mM) and that of NaClO4 in water (20 mM). These stock solutions were stored at 4° C. for up to 2 months. Sample dilutions: the day of the assay, a daughter plate (clear flat-bottomed 96-well polystyrene microplates, Costar 9017) was prepared from 20 mM stock solutions. NaClO4 (column 2) and DHPM samples (columns 4 to 11) were diluted at 10× the final concentration in uptake buffer.
FRTL5 cells were cultured as described in F. S. Ambesi-Impiombato et al., Proc. Natl. Acad. Sci. USA, 1980, 77, 3455-3459. Briefly, FRTL5 cells were cultured in Coon's modified F12 medium supplemented with 5% heat-inactivated fetal bovine serum (Invitrogen), 2 mM L-glutamine, 100 U/mL penicillin, 0.1 mg/mL streptomycin, 10 μg/mL insulin, 10 nM hydrocortisone, 10 ng/mL Gly-His-Lys acetate, 1 mU/mL TSH, 5 μg/mL transferrin at 37° C. and 5% CO2. For iodide uptake assays, 200 μL of FRTL5 cells with density of 250,000 cells/mL were dispensed in each well of clear flat-bottomed 96-well polystyrene microplates (Costar 3628) using the Multidrop 384 (ThermoFisher Scientific), and further cultured until confluence reached 80-90% (3-4 days).
The culture medium of FRTL5 monolayer cells at 80-90% confluence was replaced by uptake buffer (20° C.) via continuous aspiration/dispense cycle (600 μL) using a 96-needle head plate washer PW 384 (Tecan). The 96-needle head was set to a vertical position such that 80 μL of fresh uptake buffer remained in each well at the end of the cycle. The samples (10 μL each) from the daughter plate were transferred all at once to the assay plate using the 96-tip head pipettor Liquidator 96 (Mettler Toledo). Immediately after, 10 μL of a NaI solution at 100 μM was added to each well of the assay plate using the Liquidator 96. The assay plate was left to stand in the dark at 20±1° C. for 60 min. The assay plate was then washed with cold (4° C.) uptake buffer using the PW 384 plate washer and residual supernatant was immediately discarded by inverting the assay plate on absorbent paper.
Sodium iodide standards (S1 to S7) and water (S0) were distributed in duplicate (100 μL each) in the first and last column of the assay plate. Water (100 μL) was added to the columns with the Multidrop 384. 100 μL of the ammonium cerium (IV) sulfate solution (10.5 mM) was distributed into the columns, followed by 100 μL of the sodium arsenite (III) solution (24 mM) using the Multidrop 384. The assay plate was left to stand at 20±1° C. for 30 min. The absorbance at 420 nm (Abs420) was immediately recorded on a SpectraMax Plus 384 (Molecular Devices). A calibration curve was prepared for each plate by plotting the logarithmic conversion of the means of Abs420 (n=2) vs iodide standard concentrations (S0 to S7). The iodide concentrations in the samples were determined after linear regression of the calibration curve.

Where [2] appears, read: Table 1, variations at R1, averaged from three or four independent experiments, NaI 10 μM, 1 hour, 20°C, read-out: IC50 (μM), inhibitory activity against iodide uptake in FRTL5 cells.
[3] abbreviates: Table 2, variations at R5, averaged from three or four independent experiments, NaI 10 μM, 1 hour, 20°C, read-out: IC50 (μM), inhibitory activity against iodide uptake in FRTL5 cells.
Where [4] appears, read: Table 3, variations at R2, averaged from three or four independent experiments, NaI 10 μM, 1 hour, 20°C, read-out: IC50 (μM), inhibitory activity against iodide uptake in FRTL5 cells.
[5] abbreviates: Table 5, variations at Y, R1, R3, R4, R5, averaged from two to four independent experiments, NaI 10 μM, 1 hour, 20°C, read-out: IC50 (μM), inhibitory activity against iodide uptake in FRTL5 cells.

Where two headings read alike, the source gives them in different places.

One may read the melting point as the temperature of the solid-liquid transition. What is called IC50 is the concentration at which inhibition is half-maximal. With `COc1ccc(COC(=O)C2=C(C)NC(=O)NC2c2cccc(Br)c2)cc1` (stereo not drawn) [Compound 21, 4-Methoxybenzyl 4-(3-bromophenyl)-6-methyl-2-oxo-1,2,3,4-tetrahydropyrimidine-5-carboxylate], the melting point is 164 to 166 °C. In addition, the IC50 in data set [1] (setting [2]) is 350 nM.
As for `COc1ccc(COC(=O)C2=C(C)NC(=O)NC2c2cccc(Cl)c2)cc1` (stereo not drawn) [Compound 22, 4-Methoxybenzyl 4-(3-chlorophenyl)-6-methyl-2-oxo-1,2,3,4-tetrahydropyrimidine-5-carboxylate], the melting point is 180 to 181 °C. Also, the IC50 in data set [1] (setting [2]) was 100 nM.
As for `COc1ccc(COC(=O)C2=C(C)NC(=O)NC2c2ccccc2F)cc1` (stereo not drawn) [Compound 23, 4-Methoxybenzyl 4-(2-fluorophenyl)-6-methyl-2-oxo-1,2,3,4-tetrahydropyrimidine-5-carboxylate], the melting point lay in the range of 181 to 183 °C. The IC50 in data set [1] (setting [2]) stood at 65 nM.
In turn, `COc1ccc(COC(=O)C2=C(C)NC(=O)NC2c2cccc(F)c2)cc1` (stereo not drawn) [Compound 24, 4-Methoxybenzyl 4-(3-fluorophenyl)-6-methyl-2-oxo-1,2,3,4-tetrahydropyrimidine-5-carboxylate] showed a melting point of 173 to 174 °C. Besides, the half-maximal inhibitory concentration (IC50) in data set [1] (setting [2]) is 75 nM.
For `COc1ccc(COC(=O)C2=C(C)NC(=O)NC2c2ccc(F)cc2)cc1` (stereo not drawn) [Compound 25, 4-Methoxybenzyl 4-(4-fluorophenyl)-6-methyl-2-oxo-1,2,3,4-tetrahydropyrimidine-5-carboxylate], the melting point lay within 172 to 175 °C. Besides, in data set [1] (setting [2]), the half-inhibitory concentration (IC50) came out at 150 nM.
In the same order, the values of `COc1ccc(COC(=O)C2=C(C)NC(=O)NC2C2CC2)cc1` (stereo not drawn) [Compound 26, 4-Methoxybenzyl 4-cyclopropyl-6-methyl-2-oxo-1,2,3,4-tetrahydropyrimidine-5-carboxylate] are 158 to 160 °C and 750 nM.
The compound `COc1ccc(COC(=O)C2=C(C)NC(=O)NC2c2ccco2)cc1` (stereo not drawn) [Compound 27, 4-methoxybenzyl 4-(furan-2-yl)-6-methyl-2-oxo-1,2,3,4-tetrahydropyrimidine-5-carboxylate] came in with a melting point of 158 to 159 °C. Further, the IC50 in data set [1] (setting [2]) came to 3.2 nM.
On to `COc1cccc(COC(=O)C2=C(C)NC(=O)NC2c2ccccc2)c1` (stereo not drawn) [Compound 37, 3-Methoxybenzyl 6-methyl-2-oxo-4-phenyl-1,2,3,4-tetrahydropyrimidine-5-carboxylate], for which, in data set [1] (setting [3]), the IC50 was 50 nM.
The same measure, in the same setting: in the case of `CC1=C(C(=O)OCc2ccc3c(c2)OCO3)C(c2ccccc2)NC(=O)N1` (stereo not drawn) [Compound 38, Benzo[d][1,3]dioxol-5-ylmethyl 6-methyl-2-oxo-4-phenyl-1,2,3,4-tetrahydropyrimidine-5-carboxylate] it was 80 nM.
As to `COc1ccc(COC(=O)C2=C(CC(C)C)NC(=O)NC2c2ccccc2)cc1` (stereo not drawn) [Compound 41, 4-Methoxybenzyl 2-oxo-6-isobutyl-4-phenyl-1,2,3,4-tetrahydropyrimidine-5-carboxylate], in data set [1] (setting [4]), the IC50 came out at 550 nM.
As for `CCCCCC1=C(C(=O)OCc2ccc(OC)cc2)C(c2ccccc2)NC(=O)N1` (stereo not drawn) [Compound 42, 4-Methoxybenzyl 2-oxo-6-pentyl-4-phenyl-1,2,3,4-tetrahydropyrimidine-5-carboxylate], the half-inhibitory concentration (IC50) in data set [1] (setting [4]) worked out at 350 nM.
Consider `COc1ccc(COC(=O)C2=C(C3CCCCC3)NC(=O)NC2c2ccccc2)cc1` (stereo not drawn) [Compound 43, 4-Methoxybenzyl 6-cyclohexyl-2-oxo-4-phenyl-1,2,3,4-tetrahydropyrimidine-5-carboxylate], for which the IC50 in data set [1] (setting [4]) turned out to be 850 nM.
Regarding `COc1ccc(COC(=O)C2=C(c3ccccc3)NC(=O)NC2c2ccccc2)cc1` (stereo not drawn) [Compound 44, 4-Methoxybenzyl 4,6-diphenyl-2-oxo-1,2,3,4-tetrahydropyrimidine-5-carboxylate], in data set [1] (setting [4]), the IC50 worked out at 950 nM.
For the compound `COc1ccc(COC(=O)C2=C(COc3ccccc3)NC(=O)NC2c2ccccc2)cc1` (stereo not drawn) [Compound 46, 4-Methoxybenzyl 2-oxo-6-phenoxymethyl-4-phenyl-1,2,3,4-tetrahydropyrimidine-5-carboxylate], the 50% inhibitory concentration (IC50) in data set [1] (setting [4]) was 500 nM.
Turning to `COc1ccc(COC(=O)C2=C(Cc3cccs3)NC(=O)NC2c2ccccc2)cc1` (stereo not drawn) [Compound 49, 4-Methoxybenzyl 2-oxo-4-phenyl-6-(thiophen-2-ylmethyl)-1,2,3,4-tetrahydropyrimidine-5-carboxylate], the IC50 in data set [1] (setting [4]) came out at 150 nM.
With `COc1ccc(COC(=O)C2=C(C)N(C)C(=O)N(C)C2c2ccccc2)cc1` (stereo not drawn) [Compound 51, 4-Methoxybenzyl 1,3,6-trimethyl-2-oxo-4-phenyl-1,2,3,4-tetrahydropyrimidine-5-carboxylate], the 50% inhibitory concentration (IC50) in data set [1] (Table 4, variations at X, R3, R4, averaged from three or four independent experiments, NaI 10 μM, 1 hour, 20°C, read-out: IC50 (μM), inhibitory activity against iodide uptake in FRTL5 cells) amounted to 65 nM.
Consider `COc1ccc(COC(=O)C2=C(C)N(C)C(=O)N(C)C2c2ccco2)cc1` (stereo not drawn) [Compound 54, 4-methoxybenzyl 4-(furan-2-yl)-1,3,6-trimethyl-2-oxo-1,2,3,4-tetrahydropyrimidine-5-carboxylate], for which the IC50 in data set [1] (setting [5]) is 1.6 nM.
Turning to `COc1cccc(COC(=O)C2=C(C)N(C)C(=O)N(C)C2c2ccco2)c1` (stereo not drawn) [Compound 57, 3-methoxybenzyl 4-(furan-2-yl)-1,3,6-trimethyl-2-oxo-1,2,3,4-tetrahydropyrimidine-5-carboxylate], the concentration for half-maximal inhibition (IC50) in data set [1] (setting [5]) is 0.065 nM.
As for `CC1=C(C(=O)OCc2ccc3c(c2)OCO3)C(c2ccco2)N(C)C(=O)N1C` (stereo not drawn) [Compound 61, benzo[d][1,3]dioxol-5-ylmethyl 4-(furan-2-yl)-1,3,6-trimethyl-2-oxo-1,2,3,4-tetrahydropyrimidine-5-carboxylate], the IC50 in data set [1] (setting [5]) came to 0.85 nM.
Turning to `[O-][Cl+3]([O-])([O-])O` [Sodium perchlorate, reference compound], in data set [1] (assay control, read-out: IC50, iodide entrapment in FRTL5 cells, assay control), the IC50 stood at 100 nM.
